Laboratory results reported in patent US9320723B2, “Methods of treating thyroid eye disease” (University of Rochester, priority 2010, dated 2016).
Like-named read-outs stand apart in the source and are kept apart here.

Tests used:
[1] = test system: primary orbital fibroblasts; experiment: 15d-PGJ2 on TGF-β1 induced HA and HAS mRNA; type: cell-based, human; conditions: 15d-PGJ2 0.5, 1.0 or 2.0 μM
Experimental: Primary orbital fibroblasts were isolated from Graves' disease patients undergoing orbital decompression surgery. The cells were grown in RPMI 1640 media containing 10% FBS, and incubated for 24 hours either with or without 2 ng/ml TGF-β1, and 0.5 μM, 1.0 μM, or 2.0 μM 15d-PGJ2. The amount of HA in the cell culture supernatant and pericellular extraction was measured by ELISA as in the preceding Examples. […] While TGF-β normally induces both HAST and HAS2 mRNA expression, TGF-β induced HA secretion was inhibited by 15d-PGJ2 (FIG. 18).

HMC-1 cells = experiment: Measurement of PGD2 produced by mast cells (PGD2-MOX EIA); type: cell-based, human; conditions: 10 μM A23187, 30 minutes, compared to untreated
Experimental: HMC-1 cells (1×10^6/well) were seeded into 6-well plates and cultured in IMDM medium with 5% FBS in the absence or presence of HQL-79 (H-PGDS inhibitor, 100 μM) at 37° C. for 60 minutes. The cells were then washed and resuspended in RPMI 1640 medium with 0.5% FBS. After 2 hours incubation, the cells were stimulated with 10 μM calcium ionophore A23187 for 30 minutes. The culture media were collected and PGD2 in the supernatants was quantified by PGD2-MOX EIA kits (Cayman Chemical).

[2] = test system: human orbital fibroblasts; experiment: HA ELISA of culture medium of orbital fibroblasts treated with prostaglandins or drugs; type: cell-based; conditions: for HA levels after selective DP agonist: compared to untreated fibroblasts; for basal HA levels: 100 nM antagonist alone, compared with untreated; for PGD2- and PGJ2-induced HA production: 100 nM antagonist pretreatment 1 hour, PGD2 5 μM or PGJ2 2 μM
From the text: Orbital fibroblasts: Primary orbital fibroblasts were isolated from TED patients undergoing orbital decompression surgery. The protocols for orbital biopsy and blood sample, described below, were approved by the Internal Review Board and informed, written consent was obtained from all patients. […] Fibroblasts were characterized by their adherent morphology, expression of vimentin and types I and III collagen and absence of CD45, factor VIII or cytokeratin. Fibroblasts were used at the earliest passage possible (between passages 4 to 10). Human T cells: Lymphocytes were isolated from 60 ml of peripheral blood obtained during orbital decompression surgery. Whole blood was separated over a Ficoll-Paque Plus Gradient (Amersham Biosciences, Piscataway, N.J.) to obtain peripheral blood mononuclear cells. T cells were enriched using CD3/CD28 T cell Expander beads (Invitogen). […] After that, 50 U/ml of recombinant interleukin-2 (rIL-2) was added to the culture and incubated for another 2-3 days. On day 5, cells were diluted to a concentration of 0.5×10^6 cells/ml in medium containing 50 U/ml rIL-2 and incubated for an additional 3-7 days. Cellular purity was assessed using an anti-CD3-PE antibody (BD Biosciences, San Jose, Calif.) and analyzed on a FACSCalibur flow cytometer (BD Biosciences).
Aliquots of culture medium were removed at indicated time points, centrifuged (5 min, 8,000×g at 4° C.) and HA levels quantified by enzyme-linked immunosorbent assay (ELISA) according to the manufacturer's protocol (R&D Systems). Briefly, samples were incubated in HA-binding protein (HABP)-coated microwells, allowing HA in samples to react with the immobilized HABP. After the removal of unbound molecules by washing, biotinylated-HABP was added to the microwells. Following a second wash, streptavidin-conjugated to horseradish peroxidase was added. After the last wash, the chromogenic substrate was added and HA levels were determined using a Varioskan Flash plate reader (Thermo Fisher Scientific, Milford, Mass.).

orbital fibroblasts = experiment: Measurement of intracellular cAMP (TR-FRET immunoassay); type: cell-based, human; conditions: PGD2 5 μM, BW245C 10 μM, up to 60 minutes
Experimental: cAMP levels were quantified using a time-resolved fluorescence resonance energy transfer (TR-FRET) immunoassay from Perkin Elmer (Waltham, Mass.) according to the manufacturer's protocol. Briefly, orbital fibroblasts were detached with a non-enzymatic cell dissociation solution (Versene, Invitrogen) and re-suspended in Stimulation Buffer (pH 7.4; 1×HBSS buffer containing 5 mmol/L HEPES buffer and 0.01%-0.1% BSA) containing 0.5 mM IBMX and labeled with the Alexa Fluor® 647-labeled anti-cAMP antibody. Finally, the cells were incubated with drugs at the indicated times. Following addition of the detection buffer, the amount of cAMP signal was measured.

[3] = test system: human orbital fibroblasts; experiment: qRT-PCR of HAS mRNA after PGD2 or BW245C; type: cell-based; conditions: BW245C 10 μM
Experimental: RNA was isolated from orbital fibroblasts or T cells using an RNeasy Mini kit (Qiagen). RNA was reverse transcribed to cDNA using iScript cDNA synthesis kit (Bio-Rad) and diluted 5-fold in RNase-free H2O. Forward and reverse primers for each gene are shown in Table I. RT-PCR: The PCR reaction was performed using Qiagen Fast Cycling PCR kit for 30 cycles in a Bio-Rad thermal cycler. The PCR product was visualized on a 5% acrylamide gel stained with ethidium bromide. Amplifications without reverse transcriptase were carried out as negative controls. qRT-PCR: qRT-PCR was performed in a Bio-Rad iCycler containing B-R SYBR Green SuperMix for IQ (Quanta Biosciences, Gaithersburg, Md.). Efficiency of the amplification was determined to be >90%.
Amplification of 7S ribosomal RNA was carried out for each cDNA (in triplicate) for normalization. Threshold cycle number (Ct) of amplification in each sample was determined by Bio-Rad software and the relative mRNA abundance was calculated as the Ct for amplification of a gene-specific cDNA minus average Ct for 7S, expressed as a power of 2; i.e., 2^ΔCt.

[4] = test system: human orbital fibroblasts; experiment: Quantitation of secreted, pericellular and intracellular HA by ELISA, TGF-β1 treatment; type: cell-based; conditions: for inhibition at 10 µM: Homo sapiens, Fibroblast, 2 ng/ml TGF-β1, 24 hours; for cell number after treatment: cells counted in the FIG. 10 experiment
Experimental: Confluent monolayers of orbital fibroblasts were serum starved in 0.5% FBS RPMI-1640 medium for three days and pretreated with different concentrations of Pio or Rosi for 1 hour and then treated with or without 2 ng/ml TGF-β1 for 24 hours. After treatments, an aliquot of culture medium (secreted HA) was removed and centrifuged at 8,000×g at 4° C. for 5 minutes and the supernatant was saved for later analysis. The cells were washed twice with PBS and treated with 0.25% trypsin-EDTA solution (GIBCO, Invitrogen) at 37° C. for 5 minutes, the reaction was stopped by addition of culture medium and cell number was determined using a hemocytometer. The cells were then centrifuged and the supernatant was collected and incubated at 100° C. for 10 minutes to inactivate trypsin activity. This supernatant was saved for pericellular HA detection. The cell pellet was washed with PBS once and digested with 120 μg/ml proteinase K in 0.1% SDS/0.1 M Tris-HCl (pH 7.6) at 37° C. for 1 hour, and proteinase K was inactivated by incubation at 100° C. for 10 min. The cell lysate was centrifuged and supernatant analyzed for intracellular HA.
The amount of HA in each extract (secreted HA, pericellular HA and intracellular HA) was measured by ELISA based on the specific interaction of HA with HA binding protein (HABP). The HA detection kit was purchased from R&D system (Minneapolis, Minn.). Briefly, diluted samples were incubated in HABP-coated microwells, allowing HA present in samples to react with the immobilized HABP. After extensive washing, biotinylated HABP was added to the microwells to form complexes with bound HA. Following another round of washing, streptavidin conjugated horseradish peroxidase was added. After a brief incubation period and washing, chromogenic substrate was added and HA levels were determined using a Varioskan Flash plate reader (Thermo Fisher Scientific, Milford, Mass.). A fraction of the samples were pretreated with Streptomyces hyaluronidase (2 U/ml at 37° C. for 2 hour) before subjected to the ELISA assay as a negative control. Furthermore, an additional 50 ng/ml (final concentration) of free soluble HA was added to a fraction of the cell lysate samples to confirm that there are no inhibitory factors present and that the assays show the expected additivity when a known amount of exogenous HA is included.

[5] = test system: human orbital fibroblasts; conditions: previously reported (Feldon et al. 2006); cited from earlier work
[6] = test system: human orbital fibroblasts; experiment: qRT-PCR of HAS mRNA after TGF-β1 with or without Pio or Rosi; type: cell-based; conditions: 10 μM, 6 hours
From the text: RNA was isolated from orbital fibroblast strains using the RNeasy Mini kit according to the manufacturer's protocol (Qiagen, Valencia, Calif.) and reverse transcripted to cDNA using iScript cDNA synthesis kit (Bio-Rad, Hercules, Calif.). Primers for human HAS1, 2, 3 and 7S as well as qRT-PCR method to detect relative abundance of mRNA are identified supra. Primers for human PPARγ1 (NM138711) and PPARγ 2 (NM015869) mRNA were 5′-AAAGAAGCCGA-CACTAAACC-3′ (SEQ ID NO:3) (sense), 5′-CTTCCATTACGG-AGAGATCC-3′ (SEQ ID NO:4) (antisense) and, 5′-GCGATTC-CTTCACTGATAC-3′ (SEQ ID NO:5) (sense), 5′-CTTCCATT-ACGGAGAGATCC-3′ (SEQ ID NO:6) (antisense), respectively.

[7] = test system: human orbital fibroblasts; experiment: Cell viability assay (XTT); type: cell-based; conditions: 24 hours, with or without TGF-β1
Experimental: Cell viability was assayed using the colorimetric XTT (2,3-bis-(2-methoxy-4-nitro-5-sulfophenyl)-2H-tetrazolium-5-carboxanilide) assay kit (Roche, Germany). Briefly, orbital fibroblasts were seeded in a 96-well plate and cultured with various treatments. Twenty hours after treatment, 50 μl of XTT labeling mixture was added and cells were incubated at 37° C. for 4 hours. The amount of cleaved XTT product generated by metabolically active cells was assayed by measuring absorbance using an ELISA plate reader at 480 nm with a reference wavelength at 650 nm. Cell viability results were also confirmed by Trypan blue staining.

## CCCCC/C=C/C=C1/C(=O)C=C[C@@H]1C/C=C\CCCC(=O)O [15d-PGJ2, 15-deoxy-Δ12,14-Prostaglandin J2]
[1]; 2 ng/ml TGF-β1
  TGF-β induced HAS2 mRNA expression: inhibited TGF-β induced HAS2 mRNA expression
  TGF-β induced HAST mRNA expression: enhanced TGF-β induced HAST mRNA expression
[1]; 2 ng/ml TGF-β1, 24 hours
  TGF-β induced HA secretion: inhibited

## CNc1ccc2oc(C[C@H]3O[C@@]4(CC[C@H]3C)O[C@H]([C@H](C)C(=O)c3ccc[nH]3)[C@H](C)C[C@H]4C)nc2c1C(=O)O [A23187]
HMC-1 cells
  PGD2 production on activation: significantly increased PGD2 production

## O=C(O)CCCCCCC1C(=O)NC(=O)N1CCC(O)C1CCCCC1 (stereo not drawn) [BW245C]
[2]
  HA levels after selective DP agonist: dose-dependently increased HA levels
Orbital fibroblasts
  intracellular cAMP production: significantly increased intracellular cAMP production within 15 to 30 minutes
[3]; 6 hours
  HAS3 mRNA increase: 4.8±0.06
[3]; two hours, compared to vehicle
  HAS1 mRNA fold increase: 329±128 fold
  HAS2 mRNA fold increase: 17±0.14 fold

## CCCCCC(=O)CCC1C(=O)CC(O)C1C/C=C\CCCC(=O)O (stereo not drawn) [DK-PGD2, 13,14-dihydro-15-keto-PGD2]
[2]
  HA levels after selective DP agonist: did not significantly increase HA levels

## O=C(Nc1ccccc1)c1cc([N+](=O)[O-])ccc1Cl [GW9662]
[4]; 1 μM GW9662 pretreatment 1 hour, 10 μM Pio or Rosi, 24 hours
  effect of GW9662 on inhibition of TGF-β1 induced HA synthesis by Pio or Rosi: did not significantly reduce the ability of either Pio or Rosi to inhibit TGF-β1 induced HA synthesis
[5]
  PPARγ ligand-driven adipogenesis: completely inhibited

## CS(=O)(=O)c1cc(F)cc2c3c(n(Cc4ccc(Cl)cc4)c12)[C@@H](CC(=O)O)CC3 [MK-0524]
[2]
  basal HA levels: neither MK-0524 (MK) nor Ramatroban (RAM) influenced basal HA levels
[2]; 18 hours
  PGD2- and PGJ2-induced HA production: completely blocked the ability of both PGD2 and PGJ2 to induce HA production

## CCCCC[C@H](O)/C=C/[C@H]1C(=O)C=C[C@@H]1C/C=C\CCCC(=O)O [PGJ2]
[2]; 18 hours, strains OF1 and OF2
  concentration yielding the largest induction of HA: 2 µM
[2]; increasing concentrations, 18 hours, strains OF1 and OF2
  HA synthesis (HA ELISA): significantly increased HA synthesis by both fibroblast strains in a dose-dependant manner
[5]
  adipogenesis in human orbital fibroblasts: induce adipogenesis

## CCc1ccc(CCOc2ccc(CC3SC(=O)NC3=O)cc2)nc1 (stereo not drawn) [Pio, pioglitazone]
[4]; read-out: inhibition of TGF-β1 mediated pericellular accumulation of HA
  inhibition at 10 µM: 40 ± 2.2%
[4]; read-out: inhibition of TGF-β1 mediated secretion of HA
  inhibition at 10 µM: 52 ± 2.2%
[4]
  cell number after treatment: No significant changes in cell number
[6]
  inhibition of TGF-β1 mediated HAS1 mRNA induction: about 50%
  inhibition of TGF-β1 mediated HAS2 mRNA induction: about 50%
[7]
  cell viability (XTT): no significant difference in cell viability among treatment conditions

## O=C(O)CCn1c2c(c3ccccc31)C[C@H](NS(=O)(=O)c1ccc(F)cc1)CC2 [Ramatroban]
[2]
  basal HA levels: neither MK-0524 (MK) nor Ramatroban (RAM) influenced basal HA levels
[2]; 18 hours
  PGD2- and PGJ2-induced HA production: unable to prevent the induction of HA by PGD2 or PGJ2

## CN(CCOc1ccc(CC2SC(=O)NC2=O)cc1)c1ccccn1 (stereo not drawn) [Rosi, rosiglitazone]
[4]
  cell number after treatment: No significant changes in cell number
[7]
  cell viability (XTT): no significant difference in cell viability among treatment conditions
